Measured values published in PMC8151276, “An Integrated Approach toward NanoBRET Tracers for Analysis of GPCR Ligand Engagement” (Molecules, 2021).

Tests used:
Assay type in all cases: binding
FZD6 = biological target: T1, FZD6 (Homo sapiens, UniProt O60353); test: NanoBRET screen HiBiT-FZD6 in HEK293; settings: FZD6
T1 construct: purchased Promega (in-house HiBiT-GPCR construct library, NanoBRET)
T1 sequence (O60353 19-706): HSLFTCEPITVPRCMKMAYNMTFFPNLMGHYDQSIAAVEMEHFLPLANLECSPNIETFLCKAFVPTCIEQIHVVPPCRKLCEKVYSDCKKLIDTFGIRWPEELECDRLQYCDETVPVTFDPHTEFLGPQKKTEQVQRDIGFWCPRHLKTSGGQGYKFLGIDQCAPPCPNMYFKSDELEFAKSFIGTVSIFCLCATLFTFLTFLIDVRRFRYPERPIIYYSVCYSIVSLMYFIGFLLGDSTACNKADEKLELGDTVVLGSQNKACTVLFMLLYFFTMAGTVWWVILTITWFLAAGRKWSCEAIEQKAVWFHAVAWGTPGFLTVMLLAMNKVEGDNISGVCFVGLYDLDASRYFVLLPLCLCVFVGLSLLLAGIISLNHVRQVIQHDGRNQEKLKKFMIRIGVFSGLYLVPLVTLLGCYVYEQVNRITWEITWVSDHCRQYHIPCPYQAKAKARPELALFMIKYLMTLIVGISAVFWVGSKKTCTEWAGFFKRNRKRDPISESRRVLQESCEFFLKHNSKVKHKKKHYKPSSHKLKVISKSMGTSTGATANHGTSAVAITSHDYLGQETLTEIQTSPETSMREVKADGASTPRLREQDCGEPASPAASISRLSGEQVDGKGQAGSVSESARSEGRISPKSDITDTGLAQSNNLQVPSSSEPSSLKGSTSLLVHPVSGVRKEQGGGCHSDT
Protocol: (§1) Each tracer candidate was screened across the entire library of HiBiT-GPCR constructs using NanoBRET as the detection modality. As depicted in Figure 4A, the specificity of interactions was evaluated through decrease in BRET due to competitive displacement of a bound tracer by excess parental compound. Each tracer was analyzed for binding to each HiBiT-GPCR fusion in the absence and in the presence of competing parental compound. Briefly, HEK293 cells were transfected with HiBiT-GPCR constructs diluted into promoterless DNA to reduce expression and maximize translocation to the cell surface. Each tracer candidate was then screened at concentrations of 1 μM and 0.1 μM across cells expressing these fusions. Cells were treated for 1.5 h with tracer either alone or in the presence of 20 μM competing parental compound (i.e., control). BRET was measured upon addition of purified LgBiT and subsequent complementation with HiBiT genetically fused to a GPCR. The specificity of interactions was assessed through a decrease in BRET signal due to competitive displacement of the bound tracer. To further gauge the robustness of these interactions, the fold response over the control (i.e., BRETtracer/BRETcontrol) was calculated. We chose a 1.5-fold response, which translates to ≥7-fold signal over noise as the minimal threshold required to score an interaction as positive. […]. Below we highlight the screening results obtained for our exemplary fluorescent tracers based on Clozapine, Amitriptyline and AZD1283.
(§2) HiBiT-GPCR DNA constructs were diluted in 10 mM Tris pH 8 to a final concentration of 0.01 μg/μL, arrayed in 96-well plates and stored at −20 °C. For transfection, HEK293 cells were suspended in Opti-MEM (without phenol red) supplemented with 2% fetal bovine serum (Seradigm) and 100 units/mL penicillin–streptomycin (Gibco) at a final concentration of 220,000 cells/mL and dispensed into white 96-well plates at 90 μL/well. Subsequent transfections and screens were carried using an Agilent Bravo Automated Liquid Handling Platform. First, the 96-well HiBiT DNA arrays were diluted 25-fold in Opti-MEM (without serum or phenol red) to a final concentration of 0.0004 μg/μL and 20 μL of the diluted DNAs were transferred into new 96-well plates. Next, promoterless carrier DNA (1 μg/μL) was diluted 25-fold (0.04 μg/μL) and then dispensed into the diluted arrays at 20 μL/well. Following brief mixing, Viafect transfection reagent (Promega) diluted 16-fold into Opti-MEM was dispensed into the plates at 40 μL/well. After mixing by pipetting, plates were incubated for 10 min on the pipetting station deck. The DNA-transfection reagent complexes were then added to plates containing cells. To facilitate the screen, 10 μL of DNA-transfection reagent complexes were added in duplicates to the top 4 and bottom 4 rows, resulting in two identical 48-well arrays per plate. Plates with transfected cells were incubated for 18–20 h at 37 °C/5% CO2. A screen of each tracer across the entire library using two different concentrations requires duplicate plates of transfected cells. Depending on the number of tracers being screened, transfections can be scaled up using the same ratios. The next day, for each tracer, four 20× screening solutions in tracer dilution buffer (Promega) were prepared: two duplicates at final concentration of 20 μM and two duplicates at a final concentration of 2 μM. A competing unmodified compound was added to one of each duplicate at a final concentration of 400 μM. The four resulting solutions were diluted 4-fold in Opti-MEM without serum or phenol red to generate 5× solutions (5 µM and 0.5 µM tracer +/− 100 μM competing compound). To screen the library, a BioTek MultiFlo FX liquid dispenser was used to dispense 22.5 µL of tracer solution to the top 4 rows and 22.5 µL tracer + competing compound solution to the 4 bottom rows. Plates were briefly mixed on an orbital shaker and incubated for 1.5 h at room temperature. […]

SSTR2 = biological target: T2, SSTR2 (Homo sapiens, UniProt P30874); test: NanoBRET screen HiBiT-SSTR2 in HEK293; settings: SSTR2
T2 construct: purchased Promega (in-house HiBiT-GPCR construct library, NanoBRET)
T2 sequence (P30874 whole entry): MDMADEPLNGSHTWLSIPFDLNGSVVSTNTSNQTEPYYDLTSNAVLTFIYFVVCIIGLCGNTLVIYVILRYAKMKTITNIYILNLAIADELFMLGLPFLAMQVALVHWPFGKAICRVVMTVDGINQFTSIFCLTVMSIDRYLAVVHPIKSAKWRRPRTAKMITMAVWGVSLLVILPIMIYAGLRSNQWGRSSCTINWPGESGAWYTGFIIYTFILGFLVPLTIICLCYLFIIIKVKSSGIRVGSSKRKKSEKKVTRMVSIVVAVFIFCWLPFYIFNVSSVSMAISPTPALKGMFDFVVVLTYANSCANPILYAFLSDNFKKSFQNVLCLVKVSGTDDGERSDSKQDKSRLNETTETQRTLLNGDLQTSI
Protocol: as §1, §2

CCR7 = biological target: T3, CCR7 (Homo sapiens, UniProt P32248); test: NanoBRET screen HiBiT-CCR7 in HEK293; settings: CCR7
T3 construct: purchased Promega (in-house HiBiT-GPCR construct library, NanoBRET)
T3 sequence (P32248 25-378): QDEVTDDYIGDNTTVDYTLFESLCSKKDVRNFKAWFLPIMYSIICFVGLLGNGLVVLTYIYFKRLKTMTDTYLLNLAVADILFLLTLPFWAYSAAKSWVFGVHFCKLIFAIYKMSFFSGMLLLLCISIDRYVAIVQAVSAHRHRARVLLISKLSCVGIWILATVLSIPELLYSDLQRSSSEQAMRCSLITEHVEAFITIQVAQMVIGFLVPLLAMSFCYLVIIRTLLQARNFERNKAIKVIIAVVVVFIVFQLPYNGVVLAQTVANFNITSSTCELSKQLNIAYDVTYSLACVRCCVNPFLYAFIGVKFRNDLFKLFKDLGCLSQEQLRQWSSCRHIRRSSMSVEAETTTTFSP
Protocol: as §1, §2

SMILES | NanoBRET Fold Response (FZD6; tracer 0.1μM) | NanoBRET Fold Response (FZD6; tracer 1μM) | NanoBRET Fold Response (SSTR2; tracer 0.1μM) | NanoBRET Fold Response (SSTR2; tracer 1μM) | NanoBRET Fold Response (CCR7; tracer 0.1μM) | NanoBRET Fold Response (CCR7; tracer 1μM) | also measured
CN1CCN(C2=Nc3cc(Cl)ccc3Nc3ccc(CNC(=O)CCOCCOCCOCCOCCNC(=O)CCc4ccc5n4[B-](F)(F)[N+]4=C(c6ccc[nH]6)C=CC4=C5)cc32)CC1 [Clozapine-b-2-NB590] |  |  |  |  |  |  | NanoBRET Fold Response (FZD6; 0.1μM tracer): 1.03; NanoBRET Fold Response (FZD6; 1μM tracer): 1.04; NanoBRET Fold Response (SSTR2; 0.1μM tracer): 1.03; NanoBRET Fold Response (SSTR2; 1μM tracer): 1.01; NanoBRET Fold Response (CCR7; 0.1μM tracer): 1.00
CN1CCN(C2=Nc3cc(Cl)ccc3N(CC(=O)NCCOCCOCCOCCOCCNC(=O)CCc3ccc4n3[B-](F)(F)[N+]3=C(c5ccc[nH]5)C=CC3=C4)c3ccccc32)CC1 [Clozapine-c-2-NB590] |  |  |  |  |  |  | NanoBRET Fold Response (FZD6; 0.1μM tracer): 1.01; NanoBRET Fold Response (FZD6; 1μM tracer): 1.04; NanoBRET Fold Response (SSTR2; 0.1μM tracer): 0.97; NanoBRET Fold Response (SSTR2; 1μM tracer): 1.00; NanoBRET Fold Response (CCR7; 0.1μM tracer): 0.97; NanoBRET Fold Response (CCR7; 1μM tracer): 1.04
O=C(CCc1ccc2n1[B-](F)(F)[N+]1=C(c3ccc[nH]3)C=CC1=C2)NCc1ccc(C(=O)NCCOCCC(=O)N[C@@H]2CC[C@@]3(O)[C@H]4Cc5ccc(O)c6c5[C@@]3(CCN4CC3CC3)[C@H]2O6)cc1 [Naltrexone-3-NB590] | 0.94 | 1.10 | 1.06 | 0.93 | 1.07 | 1.05 | 
Cc1cc2c(s1)Nc1ccccc1N=C2N1CCN(CCCNC(=O)CCOCCOCCOCCOCCNC(=O)CCc2ccc3n2[B-](F)(F)[N+]2=C(c4ccc[nH]4)C=CC2=C3)CC1 [Olanzapine-a-2-NB590] | 1.03 | 0.98 | 1.03 | 0.96 | 1.01 | 1.05 | 
O=C(CCc1ccc2n1[B-](F)(F)[N+]1=C(c3ccc[nH]3)C=CC1=C2)NCc1ccc(C(=O)NCCOCCOCCNCC(O)COc2cccc3ccccc23)cc1 (centres unmarked) [Propranolol-3-NB590] |  |  |  |  |  |  | NanoBRET Fold Response (FZD6; 0.1μM): 1.06; NanoBRET Fold Response (FZD6; 1μM): 1.01; NanoBRET Fold Response (SSTR2; 0.1μM): 1.04; NanoBRET Fold Response (SSTR2; 1μM): 1.01; NanoBRET Fold Response (CCR7; 0.1μM): 1.03; NanoBRET Fold Response (CCR7; 1μM): 1.01
O=C(CCc1ccc2n1[B-](F)(F)[N+]1=C(c3ccc[nH]3)C=CC1=C2)NCCOCCOCCNC(=O)OCCOCCN1CCN(C2=Nc3ccccc3Sc3ccccc32)CC1 [Quetiapine-a-2-NB590] | 1.01 | 1.15 | 1.03 | 0.77 | 1.03 | 1.01 | 
Cc1nc2n(c(=O)c1CCN1CCC(c3noc4cc(F)ccc34)CC1)CCCC2OC(=O)NCCOCCOCCOCCOCCNC(=O)CCc1ccc2n1[B-](F)(F)[N+]1=C(c3ccc[nH]3)C=CC1=C2 (centres unmarked) [Risperidone-2-NB590] | 1.01 | 1.10 | 0.98 | 1.01 | 1.00 | 1.04 | 
